The test concerns the target T1, Recombinant human EP300 containing the bromodomain (EP300-BD (1040-1161)) (Homo sapiens, UniProt Q09472).
T1 construct: Recombinant human EP300 bromodomain (EP300-BD (1040-1161)); made in house; host or cells: E. coli BL21-CodonPlus (DE3), modified pET vector
T1 sequence (Q09472 1040-1161): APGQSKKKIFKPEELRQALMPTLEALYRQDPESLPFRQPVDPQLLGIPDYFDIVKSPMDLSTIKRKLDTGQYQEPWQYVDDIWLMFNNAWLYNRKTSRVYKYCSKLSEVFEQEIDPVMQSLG
As to the kind of experiment: EP300 Alphascreen binding assay. In a few lines: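 Displacement of a biotinylated acetyl-K56 histone H3 peptide from the N-His bromodomain construct (1040-1161) measured by AlphaScreen proximity, beads at 7.5 μg/ml final, read 60 min after addition. Protein, peptide and compound first incubated 1 h at room temperature, pH 7.5 HEPES buffer; IC50 by four-parameter logistic fit.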
Background: Bead proximity is the source of the signal in Alpha formats.

For `Cc1noc(C)c1-c1cnc2c(CC3CCC3)cn(-c3c(Cl)cc(C(=O)O)cc3Cl)c2c1` [P-0074, 3,5-dichloro-4-(3-(cyclobutylmethyl)-6-(3,5-dimethylisoxazol-4-yl)-1H-pyrrolo[3,2-b]pyridin-1-yl)benzoic acid], the IC50 (commonly the concentration at which inhibition is half-maximal) was 0.1 to 1000 nM. Turning to `Cc1cc(C(=O)O)cnc1-n1cc(CC2CCC2)c2ncc(-c3c(C)noc3C)cc21` [P-0075, 6-(3-(cyclobutylmethyl)-6-(3,5-dimethylisoxazol-4-yl)-1H-pyrrolo[3,2-b]pyridin-1-yl)-5-methylnicotinic acid], the IC50 fell in the range of 0.1 to 1000 nM. As to `Cc1noc(C)c1-c1cnc2c(CC3CCC3)cn(-c3ccc(C#N)cc3)c2c1` [P-0076, 4-(3-(cyclobutylmethyl)-6-(3,5-dimethylisoxazol-4-yl)-1H-pyrrolo[3,2-b]pyridin-1-yl)benzonitrile], the IC50 fell in the range of 1000 to 8000 nM.

With `Cc1noc(C)c1-c1cnc2c(CC3CCC3)cn(-c3ccnc(C#N)c3)c2c1` [P-0077, 4-(3-(cyclobutylmethyl)-6-(3,5-dimethylisoxazol-4-yl)-1H-pyrrolo[3,2-b]pyridin-1-yl)picolinonitrile], the IC50 lay in the range of 0.1 to 1000 nM.

With `Cc1noc(C)c1-c1cnc2c(c1)c(-c1cccc(C(=O)NC#N)c1)cn2Cc1ccccc1` [P-0078, 3-(1-benzyl-5-(3,5-dimethylisoxazol-4-yl)-1H-pyrrolo[2,3-b]pyridin-3-yl)-N-cyanobenzamide], the IC50 lay in the range of 0.1 to 1000 nM. For the molecule `Cc1noc(C)c1-c1cnc2c(c1)c(-c1cccc(C(=O)NO)c1)cn2Cc1ccccc1` [P-0079, 3-(1-benzyl-5-(3,5-dimethylisoxazol-4-yl)-1H-pyrrolo[2,3-b]pyridin-3-yl)-N-hydroxybenzamide], the IC50 was in the range of 0.1 to 1000 nM.

As for `Cc1noc(C)c1-c1cnc2c(c1)c(-c1ccc(C(=O)O)cc1)cn2C(C)c1ccccn1` (centres unmarked) [P-0080, 4-(5-(3,5-dimethylisoxazol-4-yl)-1-(1-(pyridin-2-yl)ethyl)-1H-pyrrolo[2,3-b]pyridin-3-yl)benzoic acid], the IC50 lay within 1000 to 8000 nM. The figure for `Cc1noc(C)c1-c1cnc2c(c1)c(-c1cccc(S(N)(=O)=O)c1)cn2Cc1ccccc1` [P-0081, 3-(1-benzyl-5-(3,5-dimethylisoxazol-4-yl)-1H-pyrrolo[2,3-b]pyridin-3-yl)benzenesulfonamide] is 0.1 to 1000 nM. For `CNS(=O)(=O)c1cccc(-c2cn(Cc3ccccc3)c3ncc(-c4c(C)noc4C)cc23)c1` [P-0082, 3-(1-benzyl-5-(3,5-dimethylisoxazol-4-yl)-1H-pyrrolo[2,3-b]pyridin-3-yl)-N-methylbenzenesulfonamide] the value was 1000 to 8000 nM. On to `Cc1noc(C)c1-c1cnc2c(c1)c(-c1cccc(S(=O)(=O)NC3CC3)c1)cn2Cc1ccccc1` [P-0083, 3-(1-benzyl-5-(3,5-dimethylisoxazol-4-yl)-1H-pyrrolo[2,3-b]pyridin-3-yl)-N-cyclopropylbenzenesulfonamide], for which the half-inhibitory concentration (IC50) was in the range of 0.1 to 1000 nM.

Regarding `Cc1noc(C)c1-c1cnc2c(C(=O)C3CC3)c(O)n(-c3ccnc(C(=O)O)c3)c2c1` [P-0084, 4-(3-(cyclopropanecarbonyl)-6-(3,5-dimethylisoxazol-4-yl)-2-hydroxy-1H-pyrrolo[3,2-b]pyridin-1-yl)picolinic acid], the IC50 was in the range of 0.1 to 1000 nM.

For `Cc1noc(C)c1-c1cnc2c(c1)c(-c1cccc(C(=O)O)c1)cn2C(=O)c1ccccc1` [P-0085, 3-(1-benzoyl-5-(3,5-dimethylisoxazol-4-yl)-1H-pyrrolo[2,3-b]pyridin-3-yl)benzoic acid], the IC50 is 0.1 to 1000 nM. The figure for `Cc1noc(C)c1-c1cnc2c(CC3CCC3)cn(-c3c(C(=O)O)ccc(Br)c3F)c2c1` [P-0086, 4-bromo-2-(3-(cyclobutylmethyl)-6-(3,5-dimethylisoxazol-4-yl)-1H-pyrrolo[3,2-b]pyridin-1-yl)-3-fluorobenzoic acid] is 0.1 to 1000 nM. Regarding `COc1c(-n2cc(CC3CCC3)c3ncc(-c4c(C)noc4C)cc32)ccc(C(=O)O)c1F` [P-0087, 4-(3-(cyclobutylmethyl)-6-(3,5-dimethylisoxazol-4-yl)-1H-pyrrolo[3,2-b]pyridin-1-yl)-2-fluoro-3-methoxybenzoic acid], the IC50 lay in the range of 0.1 to 1000 nM. The figure for `Cc1noc(C)c1-c1cnc2c(C(=O)c3cccc(Cl)c3)cn(-c3ccnc(C(=O)O)c3)c2c1` [P-0088, 4-(3-(3-chlorobenzoyl)-6-(3,5-dimethylisoxazol-4-yl)-1H-pyrrolo[3,2-b]pyridin-1-yl)picolinic acid] is 0.1 to 1000 nM. For `Cc1noc(C)c1-c1cnc2c(C(=O)c3ccccc3Cl)cn(-c3ccnc(C(=O)O)c3)c2c1` [P-0089, 4-(3-(2-chlorobenzoyl)-6-(3,5-dimethylisoxazol-4-yl)-1H-pyrrolo[3,2-b]pyridin-1-yl)picolinic acid] the value was 0.1 to 1000 nM. As to `Cc1noc(C)c1-c1cnc2c(Cc3cccc(Cl)c3)cn(-c3ccnc(C(=O)O)c3)c2c1` [P-0090, 4-(3-(3-chlorobenzyl)-6-(3,5-dimethylisoxazol-4-yl)-1H-pyrrolo[3,2-b]pyridin-1-yl)picolinic acid], the IC50 is 0.1 to 1000 nM.

Turning to `Cc1noc(C)c1-c1cnc2c(Cc3ccccc3Cl)cn(-c3ccnc(C(=O)O)c3)c2c1` [P-0091, 4-(3-(2-chlorobenzyl)-6-(3,5-dimethylisoxazol-4-yl)-1H-pyrrolo[3,2-b]pyridin-1-yl)picolinic acid], the IC50 was 0.1 to 1000 nM.

As to `Cc1noc(C)c1-c1cnc2c(c1)c(-c1cccc(C(=O)NS(C)(=O)=O)c1)cn2Cc1ccccc1` [P-0092, 3-(1-benzyl-5-(3,5-dimethylisoxazol-4-yl)-1H-pyrrolo[2,3-b]pyridin-3-yl)-N-(methylsulfonyl)benzamide], the IC50 was 0.1 to 1000 nM. For `Cc1noc(C)c1-c1cnc2c(c1)c(C1=CCC(C(=O)O)CC1)cn2Cc1ccccc1` (centres unmarked) [P-0093, 4-(1-benzyl-5-(3,5-dimethylisoxazol-4-yl)-1H-pyrrolo[2,3-b]pyridin-3-yl)cyclohex-3-ene-1-carboxylic acid], the half-inhibitory concentration (IC50) was 0.1 to 1000 nM. `Cc1noc(C)c1-c1cnc2c(c1)c(-c1c(F)cc(C(=O)O)cc1F)cn2C(C)c1ccccn1` (centres unmarked) [P-0094, 4-(5-(3,5-dimethylisoxazol-4-yl)-1-(1-(pyridin-2-yl)ethyl)-1H-pyrrolo[2,3-b]pyridin-3-yl)-3,5-difluorobenzoic acid]: the IC50 is 0.1 to 1000 nM. Turning to `Cc1noc(C)c1-c1cnc2c(c1)c(-c1c(Cl)cc(C(=O)O)cc1Cl)cn2C(C)c1ccccn1` (centres unmarked) [P-0095, 3,5-dichloro-4-(5-(3,5-dimethylisoxazol-4-yl)-1-(1-(pyridin-2-yl)ethyl)-1H-pyrrolo[2,3-b]pyridin-3-yl)benzoic acid], the IC50 fell in the range of 0.1 to 1000 nM. Turning to `Cc1noc(C)c1-c1cnc2c(c1)c(-c1c(F)ccc(NS(C)(=O)=O)c1F)cn2C(C)c1ccccn1` (centres unmarked) [P-0096, N-(3-(5-(3,5-dimethylisoxazol-4-yl)-1-(1-(pyridin-2-yl)ethyl)-1H-pyrrolo[2,3-b]pyridin-3-yl)-2,4-difluorophenyl)methanesulfonamide], the IC50 was in the range of 0.1 to 1000 nM.

The record behind these values is patent publication US11446287B2, “Compounds and methods for EP300 or CBP modulation and indications therefor” (Opna Immuno-Oncology SA, priority 2019, dated 2022).
